B1: HB-EGF: growth factor used to stimulate PECs (protein, UniProt Q99075 63-148, looked up)
Heparin-binding EGF-like …: DLQEADLDLLRVTLSSKPQALATPNKEEHGKRKKKGKGLGKKRDPCLRKYKDFCIHGECKYVKELRAPSCICHPGYHGERCHGLSL

Assays:
Format in all cases: cell-based
[1] = system: PEC; experiment: Proliferation assay (Ki67 staining, flow cytometry); details: PDGF-BB stimulation
Description: To assess cell proliferation, we used the nuclear antigen Ki67 staining. After overnight starvation in ECBM+1% FBS, cells were treated 24 hours with PDGF-BB (10 ng/mL) or HBEGF (20 ng/mL) or corresponding controls. Cells were then trypsinized and washed in cold PBS. Supernatants were kept and included in analysis. After centrifugation, cells were permeabilized with 1 mL of ice-cold ethanol for 2 h at −20° C. Following two washes with FACS buffer (HBSS, 2% FBS and 10 mM HEPES), cells were stained for 30 min at room temperature in the dark with phycoerythrin (PE)-conjugated anti-human Ki67 mAb (clone B56) (BD Pharmingen) and washed. Samples were analyzed on a BD LSRII flow cytometer (BD Bioscience). An isotype control staining with PE mouse IgG1 was performed. Data were analyzed using FlowJo software (FlowJo, LLC).

[2] = system: PEC; experiment: Cell migration in IBIDI chambers (scratch assay); details: scratch assays, growth factor stimulation
Description: Unoriented migration assay was performed using IBIDI chambers (Culture-Insert 2 Well in μ-Dish 35 mm, high ibiTreat, n° 81176). After confluence was obtained, PECs were grown in ECBM without supplements with FBS 1% overnight. The insert was then removed creating a gap of 500 μm between cells. A first round of photographs was taken (HO), shortly after cells were stimulated with either ECBM without supplements with FBS 1% (control), or with HB-EGF 10 ng/mL, or with PDGF-BB 10 ng/mL. Photographs were taken every 30 min for 12 h. Areas of migration were measured by automatic quantification on NIS-Elements AR software.

[3] = system: PDGFRβ; experiment: Western blot of PDGFRβ phosphorylation in PEC; details: PEC stimulated with PDGF-BB
Description: PEC lysates were prepared with RIPA extraction buffer containing phosphatase inhibitors and protease inhibitors (Roche). Equal amounts of proteins were loaded onto sodium dodecyl sulfate-polyacrylamide electrophoresis gels for separation and transferred onto poly(vinylidene difluoride) membranes. The membranes were blocked with milk and probed with different antibodies: rat anti-CD9 (BD Pharminogen, 553758, 1:1000), rabbit anti-phospho-PDGF receptor-β Y1009 (Cell Signaling Technology, 4549; 1:1000), rabbit anti-PDGFRB (Cell Signaling, 3169; 1:1000), rabbit anti-integrin […] (Millipore, 04-1109, 1:1000), rabbit anti-CASP3 (Cell Signaling Technology, 9662; 1:1000), rabbit anti-phospho EGFR Y1068 (Cell Signaling Technology, 2234; 1:1000), rabbit anti EGFR (Cell Signaling Technology, 2232; 1:1000), rabbit anti-phospho-FAK Y397 (Cell Signaling 3283, 1:1000), rabbit anti-FAK (Millipore, 06-543,1:1000). Membranes were then probed with horseradish peroxidase-conjugated secondary antibodies (Cell Signaling Technology, 7074 and 7076; 1:2000; Jackson Immunoresearch, 706-036-148; 1:1000) and bands were visualized by enhanced chemiluminescence (Clarity Western ECL substrate; Bio-Rad, 170-5061). A LAS-4000 imaging system (Fuji, LAS4000, Burlington, N.J., USA) was used to reveal bands and densitometric analysis was used for quantification.

Molecule | PEC proliferation (number of KI67+ cells) [1] | PEC migration [2] | PDGFRβ phosphorylation [3]
PDGF-BB: growth factor used to stimulate PECs | induced PEC proliferation | induced PEC migration | induced a rapid and transient PDGFRβ phosphorylation
B1 |  | induced PEC migration | 

— patent US12523663B2, “Use of CD9 as a biomarker and as a biotarget in glomerulonephritis or glomerulosclerosis” (INSERM (INSTITUT NATIONAL DE LA SANTÉ ET DE LA RECHERCHE …, priority 2019, dated 2026)
